{"source": "patent US12427134B2", "about": "“Methods of reducing the risk of cardiovascular events in a subject with atrial fibrillation and/or atrial flutter” (priority 2019, dated 2025)", "test_system": "hypertriglyceridemic patients with cardiovascular disease or at high risk for cardiovascular disease", "assay": "REDUCE-IT: treatment-emergent adverse events and serious adverse events (safety population)", "conditions": "Safety population, N = 4089", "method": "Specification of Variables and Procedures: Safety assessments included adverse events, clinical laboratory measurements (chemistry, hematology), 12-lead ECGs, vital signs (systolic and diastolic blood pressure, heart rate, respiratory rate, and body temperature), weight, waist circumference, and physical examinations as per Study Procedures in Table 1. […] All laboratory test results were evaluated by the investigator as to their clinical significance. Any observations at physical examinations or laboratory values considered by the investigator to be clinically significant were considered an adverse event.\nAn adverse event can therefore be any unfavorable and/or unintended sign (including an abnormal laboratory finding), symptom, or disease temporally associated with the use of an investigational medication product, whether or not related to the investigational medication product. All adverse events, including observed or volunteered problems, complaints, or symptoms, were recorded on the appropriate CRF. Each adverse event was evaluated for duration, intensity, and causal relationship with the study medication or other factors.\nAdverse events, which included clinical laboratory test variables, were monitored from the time of informed consent until study participation was complete. Patients were instructed to report any adverse event that they experienced to the investigator. Beginning with Visit 2, investigators assessed for adverse events at each visit and recorded the event on the appropriate adverse event CRF.\nCausality Assessment: The relationship of an adverse event to the administration of the study drug was assessed according to the following definitions: • No (unrelated, not related, no relation)—The time course between the administration of study drug and the occurrence or worsening of the adverse event rules out a causal relationship and another cause (concomitant drugs, therapies, complications, etc.) is suspected. • Yes (related, probably related, possibly related)—The time course between the administration of study drug and the occurrence or worsening of the adverse event is consistent with a causal relationship and no other cause (concomitant drugs, therapies, complications, etc.) can be identified.\nSerious Adverse Events: A serious adverse event (SAE) is defined as an adverse event that meets any of the following criteria: • Results in death; • Is life-threatening—The term “life-threatening” in the definition of “serious” refers to an event in which the patient was at risk of death at the time of the event. […] Important medical events that may not result in death, be life threatening, or require hospitalization were considered an SAE when, based upon appropriate medical judgment, they may have jeopardized the patient and may have required medical or surgical intervention to prevent one of the outcomes listed above.\nAnalysis of Safety: All analyses of safety were conducted on the safety population, which was defined as all randomized patients. The safety assessment was based on the frequency of adverse events, physical exams, vital signs and safety laboratory tests. AEs with new onset during the study between the initiation of study drug and 30 days after the last dose of study drug for each patient was considered treatment-emergent (TEAEs). This included any AE with onset prior to initiation of study drug and increased severity after the treatment initiation.\nThis included overall incidence rates (regardless of severity and relationship to study drug), and incidence rates for moderate or severe adverse events. A summary of SAEs and adverse events leading to early discontinuation (for ≥30 days) were presented through data listings. Patients who restarted study drug were included in the summary of AEs leading to discontinuation."}
{"smiles": "CC/C=C\\C/C=C\\C/C=C\\C/C=C\\C/C=C\\CCCC(=O)OCC", "note": "[AMR101, eicosapentaenoic acid ethyl ester]", "values": [{"measurement": "Serious adverse event - Anemia, n patients", "value": 22}, {"measurement": "Serious adverse event - Angina pectoris, % patients", "value": "(1.2) %"}, {"measurement": "Serious adverse event - Angina pectoris, n patients", "value": 48}, {"measurement": "Serious adverse event - Angina unstable, % patients", "value": "(1.0) %"}, {"measurement": "Serious adverse event - Angina unstable, n patients", "value": 41}, {"measurement": "Serious adverse event - Atrial fibrillation, % patients", "value": "(0.5) %"}, {"measurement": "Serious adverse event - Atrial fibrillation, n patients", "value": 21}, {"measurement": "Serious adverse event - Blood and lymphatic system disorders (SOC), % patients", "value": "(1.0) %"}, {"measurement": "Serious adverse event - Blood and lymphatic system disorders (SOC), n patients", "value": 39}, {"measurement": "Serious adverse event - Cardiac disorders (SOC), % patients", "value": "(4.7) %"}, {"measurement": "Serious adverse event - Cardiac disorders (SOC), n patients", "value": 192}, {"measurement": "Serious adverse event - Cardiac failure congestive, % patients", "value": "(0.5) %"}, {"measurement": "Serious adverse event - Cardiac failure congestive, n patients", "value": 19}, {"measurement": "Serious adverse event - Cellulitis, % patients", "value": "(0.9) %"}, {"measurement": "Serious adverse event - Cellulitis, n patients", "value": 36}, {"measurement": "Serious adverse event - Chest pain, % patients", "value": "(1.6) %"}, {"measurement": "Serious adverse event - Chest pain, n patients", "value": 66}, {"measurement": "Serious adverse event - Chronic obstructive pulmonary disease, % patients", "value": "(0.8) %"}, {"measurement": "Serious adverse event - Chronic obstructive pulmonary disease, n patients", "value": 33}, {"measurement": "Serious adverse event - Gastrointestinal disorders (SOC), % patients", "value": "(4.7) %"}, {"measurement": "Serious adverse event - Gastrointestinal disorders (SOC), n patients", "value": 191}, {"measurement": "Serious adverse event - Gastrointestinal hemorrhage, % patients", "value": "(0.6) %"}, {"measurement": "Serious adverse event - Gastrointestinal hemorrhage, n patients", "value": 26}, {"measurement": "Serious adverse event - General disorders and administration site conditions (SOC), % patients", "value": "(3.4) %"}, {"measurement": "Serious adverse event - General disorders and administration site conditions (SOC), n patients", "value": 139}, {"measurement": "Serious adverse event - Musculoskeletal and connective tissue disorders (SOC), % patients", "value": "(4.6) %"}, {"measurement": "Serious adverse event - Musculoskeletal and connective tissue disorders (SOC), n patients", "value": 188}, {"measurement": "Serious adverse event - Neoplasms benign, malignant, and unspecified (incl cysts and polyps) (SOC), % patients", "value": "(5.4) %"}, {"measurement": "Serious adverse event - Neoplasms benign, malignant, and unspecified (incl cysts and polyps) (SOC), n patients", "value": 222}, {"measurement": "Serious adverse event - Nervous system disorders (SOC), % patients", "value": "(2.5) %"}, {"measurement": "Serious adverse event - Nervous system disorders (SOC), n patients", "value": 104}, {"measurement": "Serious adverse event - Non-cardiac chest pain, % patients", "value": "(1.2) %"}, {"measurement": "Serious adverse event - Non-cardiac chest pain, n patients", "value": 49}, {"measurement": "Serious adverse event - Osteoarthritis, % patients", "value": "(2.0) %"}, {"measurement": "Serious adverse event - Osteoarthritis, n patients", "value": 81}, {"measurement": "Serious adverse event - Pneumonia, % patients", "value": "(2.6) %"}, {"measurement": "Serious adverse event - Pneumonia, n patients", "value": 105}, {"measurement": "Serious adverse event - Prostate cancer, % patients", "value": "(0.6) %"}, {"measurement": "Serious adverse event - Prostate cancer, n patients", "value": 26}, {"measurement": "Serious adverse event - Pulmonary embolism, % patients", "value": "(0.3) %"}, {"measurement": "Serious adverse event - Pulmonary embolism, n patients", "value": 14}, {"measurement": "Serious adverse event - Renal and urinary disorders (SOC), % patients", "value": "(2.9) %"}, {"measurement": "Serious adverse event - Renal and urinary disorders (SOC), n patients", "value": 120}, {"measurement": "Serious adverse event - Respiratory, thoracic, and mediastinal disorders (SOC), % patients", "value": "(3.5) %"}, {"measurement": "Serious adverse event - Respiratory, thoracic, and mediastinal disorders (SOC), n patients", "value": 143}, {"measurement": "Serious adverse event - Syncope, % patients", "value": "(0.7) %"}, {"measurement": "Serious adverse event - Syncope, n patients", "value": 28}, {"measurement": "Severe TEAE, %", "value": "(19.7) %"}, {"measurement": "Severe TEAE: Acute kidney injury, %", "value": "(0.7) %"}, {"measurement": "Severe TEAE: Acute respiratory failure, %", "value": "(0.5) %"}, {"measurement": "Severe TEAE: Angina pectoris, %", "value": "(0.2) %"}, {"measurement": "Severe TEAE: Angina unstable, %", "value": "(0.3) %"}, {"measurement": "Severe TEAE: Back pain, %", "value": "(0.5) %"}, {"measurement": "Severe TEAE: Cardiac disorders, %", "value": "(2.4) %"}, {"measurement": "Severe TEAE: Chest pain, %", "value": "(0.7) %"}, {"measurement": "Severe TEAE: Chronic obstructive pulmonary disease, %", "value": "(0.4) %"}, {"measurement": "Severe TEAE: General disorders and administration site conditions, %", "value": "(1.9) %"}, {"measurement": "Severe TEAE: Musculoskeletal and connective tissue disorders, %", "value": "(2.9) %"}, {"measurement": "Severe TEAE: Nervous system disorders, %", "value": "(1.9) %"}, {"measurement": "Severe TEAE: Osteoarthritis, %", "value": "(0.8) %"}, {"measurement": "Severe TEAE: Pneumonia, %", "value": "(1.5) %"}, {"measurement": "Severe TEAE: Renal and urinary disorders, %", "value": "(1.9) %"}, {"measurement": "Severe TEAE: Respiratory, thoracic, and mediastinal disorders, %", "value": "(2.5) %"}, {"measurement": "Severe TEAE: Syncope, %", "value": "(0.3) %"}, {"measurement": "Study Drug-Related Serious TEAE Leading to Withdrawal of Study Drug, %", "value": "(0.0) %"}, {"measurement": "Study Drug-Related Serious TEAE, %", "value": "(0.2) %"}, {"measurement": "Study Drug-Related TEAE Leading to Withdrawal of Study Drug, %", "value": "(3.4) %"}, {"measurement": "Study Drug-Related TEAE, %", "value": "(12.6) %"}, {"measurement": "Study drug-related TEAE leading to study drug withdrawal - Abdominal discomfort, % patients", "value": "(0.1) %"}, {"measurement": "Study drug-related TEAE leading to study drug withdrawal - Abdominal discomfort, n patients", "value": 6}, {"measurement": "Study drug-related TEAE leading to study drug withdrawal - Abdominal distension, % patients", "value": "(0.1) %"}, {"measurement": "Study drug-related TEAE leading to study drug withdrawal - Abdominal distension, n patients", "value": 3}, {"measurement": "Study drug-related TEAE leading to study drug withdrawal - Abdominal pain upper, % patients", "value": "(0.1) %"}, {"measurement": "Study drug-related TEAE leading to study drug withdrawal - Abdominal pain upper, n patients", "value": 4}, {"measurement": "Study drug-related TEAE leading to study drug withdrawal - Abdominal pain, % patients", "value": "(0.0) %"}, {"measurement": "Study drug-related TEAE leading to study drug withdrawal - Abdominal pain, n patients", "value": 1}, {"measurement": "Study drug-related TEAE leading to study drug withdrawal - Abnormal feces, % patients", "value": "(0.0) %"}, {"measurement": "Study drug-related TEAE leading to study drug withdrawal - Abnormal feces, n patients", "value": 0}, {"measurement": "Study drug-related TEAE leading to study drug withdrawal - Arthralgia, % patients", "value": "(0.2) %"}, {"measurement": "Study drug-related TEAE leading to study drug withdrawal - Arthralgia, n patients", "value": 7}, {"measurement": "Study drug-related TEAE leading to study drug withdrawal - Arthritis, % patients", "value": "(0.1) %"}, {"measurement": "Study drug-related TEAE leading to study drug withdrawal - Arthritis, n patients", "value": 3}, {"measurement": "Study drug-related TEAE leading to study drug withdrawal - Constipation, % patients", "value": "(0.1) %"}, {"measurement": "Study drug-related TEAE leading to study drug withdrawal - Constipation, n patients", "value": 4}, {"measurement": "Study drug-related TEAE leading to study drug withdrawal - Diarrhea, % patients", "value": "(1.0) %"}, {"measurement": "Study drug-related TEAE leading to study drug withdrawal - Diarrhea, n patients", "value": 41}, {"measurement": "Study drug-related TEAE leading to study drug withdrawal - Dyspepsia, % patients", "value": "(0.1) %"}, {"measurement": "Study drug-related TEAE leading to study drug withdrawal - Dyspepsia, n patients", "value": 4}, {"measurement": "Study drug-related TEAE leading to study drug withdrawal - Eructation, % patients", "value": "(0.1) %"}, {"measurement": "Study drug-related TEAE leading to study drug withdrawal - Eructation, n patients", "value": 3}, {"measurement": "Study drug-related TEAE leading to study drug withdrawal - Flatulence, % patients", "value": "(0.1) %"}, {"measurement": "Study drug-related TEAE leading to study drug withdrawal - Flatulence, n patients", "value": 6}, {"measurement": "Study drug-related TEAE leading to study drug withdrawal - Gastric disorder, % patients", "value": "(0.1) %"}, {"measurement": "Study drug-related TEAE leading to study drug withdrawal - Gastric disorder, n patients", "value": 4}]}
